In the supplement of paper PMC11061612:

Key:
[1] = test system: NCI-H524 (Small Cell Lung Carcinoma); assay: combination Emax (second highest fraction inhibited in the dose matrix, 72 h); higher = more inhibition; extreme values may be limits of the assay
Method in brief: (§1)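 Cell lines grown in DMEM/F12 or RPMI with 10% FBS were plated in 1536-well plates and held 24 hours at 37°C, 5% CO2 before 72 hours of exposure to two-drug dose matrices, with DMSO typically at 0.2%. CellTiter-Glo 2.0 luminescence gave viability, which was converted to inhibition. Vehicle wells were set to 0 and blank wells to 1. Combination Emax is the second-highest inhibition in the matrix, and Bliss excess is the observed combination effect minus the expected EA + EB − EA·EB, where EA and EB are the single-agent effects.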

[2] = test system: SNU-449 (Hepatocellular Carcinoma); assay: as above
Method in brief: as §1

CAL-72 (Osteosarcoma) [3] = assay: as above
Method in brief: as §1

[4] = test system: LNZTA3WT4 (Low Grade Glioma); assay: as above
Method in brief: as §1

[5] = test system: OVCAR-5 (Ovarian Carcinoma); assay: as above
Method in brief: as §1

[6] = test system: WSU-NHL (B-Cell Non-Hodgkin's Lymphoma); assay: as above
Method in brief: as §1

[7] = test system: KYAE-1 (Esophageal Adenocarcinoma); assay: as above
Method in brief: as §1

[8] = test system: SNU-16 (Gastric Carcinoma); assay: as above
Method in brief: as §1

[9] = test system: TGBC1TKB (Biliary Tract Carcinoma); assay: as above
Method in brief: as §1

EW-11 (Ewing's Sarcoma) [10] = assay: as above
Method in brief: as §1

LOXIMVI (Melanoma) [11] = assay: as above
Method in brief: as §1

[12] = test system: BE-13 (T-Lymphoblastic Leukemia); assay: as above
Method in brief: as §1

[13] = test system: HH (T-Cell Non-Hodgkin's Lymphoma); assay: as above
Method in brief: as §1

[14] = test system: SW1710 (Bladder Carcinoma); assay: as above
Method in brief: as §1

GAMG (Glioblastoma) [15] = assay: as above
Method in brief: as §1

[16] = test system: LS-123 (Colorectal Carcinoma); assay: as above
Method in brief: as §1

[17] = test system: HuCCT1 (Biliary Tract Carcinoma); assay: as above
Method in brief: as §1

A673 (Ewing's Sarcoma) [18] = assay: as above
Method in brief: as §1

KS-1 (Glioblastoma) [19] = assay: as above
Method in brief: as §1

[20] = test system: ESS-1 (Other Solid Carcinomas); assay: as above
Method in brief: as §1

[21] = test system: SAS (Oral Cavity Carcinoma); assay: as above
Method in brief: as §1

[22] = test system: YAPC (Pancreatic Carcinoma); assay: as above
Method in brief: as §1

MPP-89 (Mesothelioma) [23] = assay: as above
Method in brief: as §1

[24] = test system: NCI-H524 (Small Cell Lung Carcinoma); assay: Bliss excess, mean over the matrix (fraction); higher = more synergy
Method in brief: as §1

[25] = test system: SNU-449 (Hepatocellular Carcinoma); assay: as above
Method in brief: as §1

CAL-72 (Osteosarcoma) [26] = assay: as above
Method in brief: as §1

[27] = test system: LNZTA3WT4 (Low Grade Glioma); assay: as above
Method in brief: as §1

[28] = test system: OVCAR-5 (Ovarian Carcinoma); assay: as above
Method in brief: as §1

[29] = test system: WSU-NHL (B-Cell Non-Hodgkin's Lymphoma); assay: as above
Method in brief: as §1

[30] = test system: KYAE-1 (Esophageal Adenocarcinoma); assay: as above
Method in brief: as §1

[31] = test system: SNU-16 (Gastric Carcinoma); assay: as above
Method in brief: as §1

[32] = test system: TGBC1TKB (Biliary Tract Carcinoma); assay: as above
Method in brief: as §1

EW-11 (Ewing's Sarcoma) [33] = assay: as above
Method in brief: as §1

LOXIMVI (Melanoma) [34] = assay: as above
Method in brief: as §1

[35] = test system: BE-13 (T-Lymphoblastic Leukemia); assay: as above
Method in brief: as §1

[36] = test system: HH (T-Cell Non-Hodgkin's Lymphoma); assay: as above
Method in brief: as §1

[37] = test system: SW1710 (Bladder Carcinoma); assay: as above
Method in brief: as §1

GAMG (Glioblastoma) [38] = assay: as above
Method in brief: as §1

[39] = test system: LS-123 (Colorectal Carcinoma); assay: as above
Method in brief: as §1

[40] = test system: HuCCT1 (Biliary Tract Carcinoma); assay: as above
Method in brief: as §1

A673 (Ewing's Sarcoma) [41] = assay: as above
Method in brief: as §1

KS-1 (Glioblastoma) [42] = assay: as above
Method in brief: as §1

[43] = test system: ESS-1 (Other Solid Carcinomas); assay: as above
Method in brief: as §1

[44] = test system: SAS (Oral Cavity Carcinoma); assay: as above
Method in brief: as §1

[45] = test system: YAPC (Pancreatic Carcinoma); assay: as above
Method in brief: as §1

MPP-89 (Mesothelioma) [46] = assay: as above
Method in brief: as §1
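Wherever Bliss excess, mean over the matrix is given: after 72 h of two-drug dosing.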

O=C(c1cc(Cc2n[nH]c(=O)c3ccccc23)ccc1F)N1CCN(C(=O)C2CC2)CC1 [Olaparib] + CN(CC[C@H](CSC1=CC=CC=C1)NC2=C(C=C(C=C2)S(=O)(=O)NC(=O)C3=CC=C(C=C3)N4CCC(CC4)[C@H](C5=CC=CC=C5C6=CC=C(C=C6)Cl)O)S(=O)(=O)C(F)(F)F)CCO [AZD4320] (first compound max 10 µM, 7x7, partner max 1 µM)
combination Emax [1]: 0.755 | combination Emax [2]: 0.11 | combination Emax (CAL-72 (Osteosarcoma) [3]): 0.183 | combination Emax [4]: 0.168 | combination Emax [5]: 0.182 | combination Emax [6]: 0.674 | combination Emax [7]: 0.587 | combination Emax [8]: 0.691 | combination Emax [9]: 0.366 | combination Emax (EW-11 (Ewing's Sarcoma) [10]): 0.923 | combination Emax (LOXIMVI (Melanoma) [11]): 0.447 | combination Emax [12]: 0.983 | combination Emax [13]: 0.21 | combination Emax [14]: 0.265 | combination Emax (GAMG (Glioblastoma) [15]): 0.223 | combination Emax [16]: 0.512 | combination Emax [17]: 0.193 | combination Emax (A673 (Ewing's Sarcoma) [18]): 0.948 | combination Emax (KS-1 (Glioblastoma) [19]): 0.2 | combination Emax [20]: 0.787 | combination Emax [21]: 0.205 | combination Emax [22]: 0.11 | combination Emax (MPP-89 (Mesothelioma) [23]): 0.138 | Bliss excess [24]: 0.0085 | Bliss excess [25]: -0.0422 | Bliss excess (CAL-72 (Osteosarcoma) [26]): -0.0332 | Bliss excess [27]: -0.0332 | Bliss excess [28]: -0.0414 | Bliss excess [29]: 0.0345 | Bliss excess [30]: 0.0363 | Bliss excess [31]: 0.0432 | Bliss excess [32]: -0.049 | Bliss excess (EW-11 (Ewing's Sarcoma) [33]): 0.0141 | Bliss excess (LOXIMVI (Melanoma) [34]): 0.0022 | Bliss excess [35]: 0.0096 | Bliss excess [36]: -0.0133 | Bliss excess [37]: -0.0397 | Bliss excess (GAMG (Glioblastoma) [38]): -0.034 | Bliss excess [39]: -0.0647 | Bliss excess [40]: -0.0518 | Bliss excess (A673 (Ewing's Sarcoma) [41]): 0.0265 | Bliss excess (KS-1 (Glioblastoma) [42]): -0.041 | Bliss excess [43]: 0.0825 | Bliss excess [44]: -0.0318 | Bliss excess [45]: -0.0169 | Bliss excess (MPP-89 (Mesothelioma) [46]): -0.0662

O=C(c1cc(Cc2n[nH]c(=O)c3ccccc23)ccc1F)N1CCN(C(=O)C2CC2)CC1 [Olaparib] + Cc1c2c(nn1C)CSCc1cc(n(C)n1)CSc1cc(c3ccccc3c1)OCCCc1c(C(=O)O)n(C)c3c-2c(Cl)ccc13 [AZD5991] (first compound max 10 µM, 7x7, partner max 1 µM)
combination Emax [1]: 0.426 | combination Emax [2]: 0.0781 | combination Emax (CAL-72 (Osteosarcoma) [3]): 0.191 | combination Emax [4]: 0.123 | combination Emax [5]: 0.122 | combination Emax [6]: 0.797 | combination Emax [7]: 0.231 | combination Emax [8]: 0.994 | combination Emax [9]: 0.157 | combination Emax (EW-11 (Ewing's Sarcoma) [10]): 0.831 | combination Emax (LOXIMVI (Melanoma) [11]): 0.311 | combination Emax [12]: 0.498 | combination Emax [13]: 0.809 | combination Emax [14]: 0.119 | combination Emax (GAMG (Glioblastoma) [15]): 0.0955 | combination Emax [16]: 0.127 | combination Emax [17]: 0.15 | combination Emax (A673 (Ewing's Sarcoma) [18]): 0.446 | combination Emax (KS-1 (Glioblastoma) [19]): 0.0895 | combination Emax [20]: 0.403 | combination Emax [21]: 0.122 | combination Emax [22]: 0.104 | combination Emax (MPP-89 (Mesothelioma) [23]): 0.0575 | Bliss excess [24]: 0.0147 | Bliss excess [25]: -0.045 | Bliss excess (CAL-72 (Osteosarcoma) [26]): -0.0242 | Bliss excess [27]: -0.0468 | Bliss excess [28]: -0.0729 | Bliss excess [29]: 0.0217 | Bliss excess [30]: 0.0031 | Bliss excess [31]: 0.0603 | Bliss excess [32]: -0.0334 | Bliss excess (EW-11 (Ewing's Sarcoma) [33]): -0.0175 | Bliss excess (LOXIMVI (Melanoma) [34]): -0.0409 | Bliss excess [35]: 0.0142 | Bliss excess [36]: -0.0339 | Bliss excess [37]: -0.0476 | Bliss excess (GAMG (Glioblastoma) [38]): -0.0488 | Bliss excess [39]: -0.0658 | Bliss excess [40]: -0.0367 | Bliss excess (A673 (Ewing's Sarcoma) [41]): -0.0566 | Bliss excess (KS-1 (Glioblastoma) [42]): -0.0463 | Bliss excess [43]: -0.0255 | Bliss excess [44]: -0.0344 | Bliss excess [45]: -0.0367 | Bliss excess (MPP-89 (Mesothelioma) [46]): -0.0586

N#Cc1cnc(Nc2cc(NC[C@H]3CNCCO3)c(C(F)(F)F)cn2)cn1 [SRA737] + O=c1[nH]cc(F)c(=O)[nH]1 [5-Fluorouracil] (first compound max 10 µM, 7x7, partner max 20 µM)
combination Emax [1]: 0.935 | combination Emax [2]: 0.293 | combination Emax (CAL-72 (Osteosarcoma) [3]): 0.51 | combination Emax [4]: 0.815 | combination Emax [5]: 0.538 | combination Emax [6]: 0.965 | combination Emax [7]: 0.23 | combination Emax [8]: 0.961 | combination Emax [9]: 0.0891 | combination Emax (EW-11 (Ewing's Sarcoma) [10]): 0.5 | combination Emax (LOXIMVI (Melanoma) [11]): 0.41 | combination Emax [12]: 0.863 | combination Emax [13]: 0.188 | combination Emax [14]: 0.217 | combination Emax (GAMG (Glioblastoma) [15]): 0.315 | combination Emax [16]: 0.414 | combination Emax [17]: 0.839 | combination Emax (A673 (Ewing's Sarcoma) [18]): 0.402 | combination Emax (KS-1 (Glioblastoma) [19]): 0.281 | combination Emax [20]: 0.927 | combination Emax [21]: 0.456 | combination Emax [22]: 0.406 | combination Emax (MPP-89 (Mesothelioma) [23]): 0.424 | Bliss excess [24]: 0.0593 | Bliss excess [25]: -0.0175 | Bliss excess (CAL-72 (Osteosarcoma) [26]): 0.0294 | Bliss excess [27]: -0.0325 | Bliss excess [28]: -0.0535 | Bliss excess [29]: 0.0005 | Bliss excess [30]: 0.0202 | Bliss excess [31]: 0.0632 | Bliss excess [32]: -0.0482 | Bliss excess (EW-11 (Ewing's Sarcoma) [33]): -0.0246 | Bliss excess (LOXIMVI (Melanoma) [34]): -0.0241 | Bliss excess [35]: -0.0334 | Bliss excess [36]: 0.0123 | Bliss excess [37]: -0.0212 | Bliss excess (GAMG (Glioblastoma) [38]): -0.0226 | Bliss excess [39]: -0.0135 | Bliss excess [40]: 0.102 | Bliss excess (A673 (Ewing's Sarcoma) [41]): 0.0354 | Bliss excess (KS-1 (Glioblastoma) [42]): -0.0464 | Bliss excess [43]: -0.0297 | Bliss excess [44]: -0.0104 | Bliss excess [45]: 0.0062 | Bliss excess (MPP-89 (Mesothelioma) [46]): 0.0355
